The numbers were not newly measured in patent US20250231185A1, “Coronavirus T Cell Epitopes, Megapools and Uses Thereof” (La Jolla Institute for Immunology, priority 2021, published 2025), which cites them from elsewhere.

The subject of the data set is CD8+ T cells. Conditions: CD8RE megapool peptides (non-spike SARS-CoV-2 antigens); dominant epitope Yes/No; cited from earlier work.
Turning to 2924 (SPRWYFYYL) [compound 2924], the Dominant entry is “Yes (more dominant epitopes are defined by being recognized by 3 or more donors/different studies)”.
In the case of 2925 (GTGPEAGLPY) [compound 2925], the Dominant entry is given as “Yes (more dominant epitopes are defined by being recognized by 3 or more donors/different studies)”.
As for 2926 (ATEGALNTPK) [compound 2926], the Dominant entry is recorded as “Yes (more dominant epitopes are defined by being recognized by 3 or more donors/different studies)”.
For the substance 2927 (NPANNAAIVL) [compound 2927], the Dominant result is given as “Yes (more dominant epitopes are defined by being recognized by 3 or more donors/different studies)”.
Turning to 2928 (VLQLPQGTTL) [compound 2928], the Dominant result was “Yes (more dominant epitopes are defined by being recognized by 3 or more donors/different studies)”.
Turning to 2929 (LALLLLDRL) [compound 2929], the Dominant result was “Yes (more dominant epitopes are defined by being recognized by 3 or more donors/different studies)”.
With 2930 (LLLLDRLNQL) [compound 2930], the Dominant entry is “Yes (more dominant epitopes are defined by being recognized by 3 or more donors/different studies)”.
2931 (LLLDRLNQL) [compound 2931]: the Dominant entry was “Yes (more dominant epitopes are defined by being recognized by 3 or more donors/different studies)”.
As to 2932 (QQQQGQTVTK) [compound 2932], the Dominant entry is on record as “Yes (more dominant epitopes are defined by being recognized by 3 or more donors/different studies)”.
Take 2933 (KPRQKRTAT) [compound 2933]: the Dominant result is “Yes (more dominant epitopes are defined by being recognized by 3 or more donors/different studies)”.
Take 2936 (AQFAPSASAF) [compound 2936]: the Dominant result is listed as “Yes (more dominant epitopes are defined by being recognized by 3 or more donors/different studies)”.
On to 2937 (ASAFFGMSR) [compound 2937], for which the Dominant entry is on record as “Yes (more dominant epitopes are defined by being recognized by 3 or more donors/different studies)”.
Regarding 2938 (GMSRIGMEV) [compound 2938], the Dominant entry was “Yes (more dominant epitopes are defined by being recognized by 3 or more donors/different studies)”.
Turning to 2939 (MEVTPSGTW) [compound 2939], the Dominant entry was “Yes (more dominant epitopes are defined by being recognized by 3 or more donors/different studies)”.
As to 2940 (MEVTPSGTWL) [compound 2940], the Dominant result is “Yes (more dominant epitopes are defined by being recognized by 3 or more donors/different studies)”.
Take 2941 (ILLNKHIDA) [compound 2941]: the Dominant result is on record as “Yes (more dominant epitopes are defined by being recognized by 3 or more donors/different studies)”.
On to 2944 (LPAADLDDF) [compound 2944], for which the Dominant entry is reported as “Yes (more dominant epitopes are defined by being recognized by 3 or more donors/different studies)”.
On to 2945 (FSKQLQQSM) [compound 2945], for which the Dominant entry was “Yes (more dominant epitopes are defined by being recognized by 3 or more donors/different studies)”.
As for 2946 (VLSEARQHL) [compound 2946], the Dominant entry is recorded as “Yes (more dominant epitopes are defined by being recognized by 3 or more donors/different studies)”.
For the substance 2947 (TVLSFCAFAV) [compound 2947], the Dominant result is recorded as “Yes (more dominant epitopes are defined by being recognized by 3 or more donors/different studies)”.
Take 2948 (DLKGKYVQI) [compound 2948]: the Dominant entry was “Yes (more dominant epitopes are defined by being recognized by 3 or more donors/different studies)”.
As for 2949 (YTMADLVYAL) [compound 2949], the Dominant result is reported as “Yes (more dominant epitopes are defined by being recognized by 3 or more donors/different studies)”.
With 2950 (TMADLVYAL) [compound 2950], the Dominant result was “Yes (more dominant epitopes are defined by being recognized by 3 or more donors/different studies)”.
Take 2951 (LLMPILTLT) [compound 2951]: the Dominant result is recorded as “Yes (more dominant epitopes are defined by being recognized by 3 or more donors/different studies)”.
On to 2952 (KLFDRYFKY) [compound 2952], for which the Dominant entry was “Yes (more dominant epitopes are defined by being recognized by 3 or more donors/different studies)”.
For the substance 2953 (FVDGVPFVV) [compound 2953], the Dominant result was “Yes (more dominant epitopes are defined by being recognized by 3 or more donors/different studies)”.
As for 2954 (ISDYDYYRY) [compound 2954], the Dominant result is recorded as “Yes (more dominant epitopes are defined by being recognized by 3 or more donors/different studies)”.
In the case of 2955 (RQLLFVVEV) [compound 2955], the Dominant result is reported as “Yes (more dominant epitopes are defined by being recognized by 3 or more donors/different studies)”.
On to 2956 (VVDKYFDCY) [compound 2956], for which the Dominant result is listed as “Yes (more dominant epitopes are defined by being recognized by 3 or more donors/different studies)”.
For the substance 2957 (RLYYDSMSY) [compound 2957], the Dominant result is “Yes (more dominant epitopes are defined by being recognized by 3 or more donors/different studies)”.
For the substance 2958 (MVMCGGSLYV) [compound 2958], the Dominant entry was “Yes (more dominant epitopes are defined by being recognized by 3 or more donors/different studies)”.
Consider 2959 (DTDFVNEFY) [compound 2959], for which the Dominant entry is given as “Yes (more dominant epitopes are defined by being recognized by 3 or more donors/different studies)”.
With 2960 (FYAYLRKHF) [compound 2960], the Dominant result was “Yes (more dominant epitopes are defined by being recognized by 3 or more donors/different studies)”.
As for 2961 (RILGAGCFV) [compound 2961], the Dominant result is “Yes (more dominant epitopes are defined by being recognized by 3 or more donors/different studies)”.
As to 2963 (LYLQYIRKL) [compound 2963], the Dominant entry is given as “Yes (more dominant epitopes are defined by being recognized by 3 or more donors/different studies)”.
For the substance 2964 (VLQAVGACV) [compound 2964], the Dominant entry is recorded as “Yes (more dominant epitopes are defined by being recognized by 3 or more donors/different studies)”.
Take 2965 (LVLSVNPYV) [compound 2965]: the Dominant entry is listed as “Yes (more dominant epitopes are defined by being recognized by 3 or more donors/different studies)”.
With 2968 (VVYRGTTTY) [compound 2968], the Dominant result is given as “Yes (more dominant epitopes are defined by being recognized by 3 or more donors/different studies)”.
As to 2969 (VVYRGTTTYK) [compound 2969], the Dominant entry is recorded as “Yes (more dominant epitopes are defined by being recognized by 3 or more donors/different studies)”.
As for 2970 (VYRGTTTYKL) [compound 2970], the Dominant result is on record as “Yes (more dominant epitopes are defined by being recognized by 3 or more donors/different studies)”.
Consider 2971 (KLNVGDYFV) [compound 2971], for which the Dominant entry is reported as “Yes (more dominant epitopes are defined by being recognized by 3 or more donors/different studies)”.
On to 2972 (SSNVANYQK) [compound 2972], for which the Dominant entry was “Yes (more dominant epitopes are defined by being recognized by 3 or more donors/different studies)”.
2973 (VYIGDPAQL) [compound 2973]: the Dominant result was “Yes (more dominant epitopes are defined by being recognized by 3 or more donors/different studies)”.
Regarding 2974 (IVDTVSALV) [compound 2974], the Dominant entry is “Yes (more dominant epitopes are defined by being recognized by 3 or more donors/different studies)”.
2976 (VLWAHGFEL) [compound 2976]: the Dominant entry was “Yes (more dominant epitopes are defined by being recognized by 3 or more donors/different studies)”.
With 2977 (TYACWHHSI) [compound 2977], the Dominant entry was “Yes (more dominant epitopes are defined by being recognized by 3 or more donors/different studies)”.
For the substance 2978 (AIMTRCLAV) [compound 2978], the Dominant entry is recorded as “Yes (more dominant epitopes are defined by being recognized by 3 or more donors/different studies)”.
As for 2979 (IEYPIIGDEL) [compound 2979], the Dominant entry is listed as “Yes (more dominant epitopes are defined by being recognized by 3 or more donors/different studies)”.
For 2980 (ALLADKFPV) [compound 2980], the Dominant result is on record as “Yes (more dominant epitopes are defined by being recognized by 3 or more donors/different studies)”.
With 2981 (SYATHSDKF) [compound 2981], the Dominant result is given as “Yes (more dominant epitopes are defined by being recognized by 3 or more donors/different studies)”.
2983 (MMISAGFSL) [compound 2983]: the Dominant entry was “Yes (more dominant epitopes are defined by being recognized by 3 or more donors/different studies)”.
As for 2984 (KQFDTYNLW) [compound 2984], the Dominant result was “Yes (more dominant epitopes are defined by being recognized by 3 or more donors/different studies)”.
Consider 2985 (NLWNTFTRL) [compound 2985], for which the Dominant result is “Yes (more dominant epitopes are defined by being recognized by 3 or more donors/different studies)”.
On to 2986 (KVDGVDVEL) [compound 2986], for which the Dominant result is reported as “Yes (more dominant epitopes are defined by being recognized by 3 or more donors/different studies)”.
Take 2987 (LLLDDFVEII) [compound 2987]: the Dominant result was “Yes (more dominant epitopes are defined by being recognized by 3 or more donors/different studies)”.
On to 2988 (MLWCKDGHV) [compound 2988], for which the Dominant entry was “Yes (more dominant epitopes are defined by being recognized by 3 or more donors/different studies)”.
Consider 2989 (GVAMPNLYK) [compound 2989], for which the Dominant result is recorded as “Yes (more dominant epitopes are defined by being recognized by 3 or more donors/different studies)”.
Regarding 2990 (KMQRMLLEK) [compound 2990], the Dominant result is “Yes (more dominant epitopes are defined by being recognized by 3 or more donors/different studies)”.
Take 2993 (KTIQPRVEK) [compound 2993]: the Dominant result is on record as “Yes (more dominant epitopes are defined by being recognized by 3 or more donors/different studies)”.
For the substance 2994 (KLVNKFLAL) [compound 2994], the Dominant entry is on record as “Yes (more dominant epitopes are defined by being recognized by 3 or more donors/different studies)”.
